The source of these data is patent US6436419B1, “Antimicrobial treatment of polymers” (The Regents of the University of California, priority 1998, dated 2002).

The nature of data set [1]: Add-on rates of quaternary ammonium salts on dyed and undyed nylon fabrics and weight loss after Launder-Ometer washing. The data set is classed as physicochemical. As to conditions: for Add-on rate after 7 washes (%): Launder-Ometer, AATCC test method 61; for Total weight loss after the + 7 washes (%): after finishing and 7 Launder-Ometer washes. As for the experimental part:
Nylon fabrics were dyed with 1% on weight fabric (o.w.f.) dye solutions at 95° C. for 90 min. The liquor ratio was 1:50, and the pH of the dye bath was adjusted to pH=3.5 with acetic acid. The dyed fabrics were washed with the AATCC standard detergent after dyeing and then cured at 120° C. for 15 minutes.
The antibacterial finishing baths were prepared by dissolving quaternary ammonium salts in distilled water. The pH value was adjusted to pH=4 with acetic acid. The dyed nylon fabric was dipped in the antibacterial agent solution, padded to a wet pick up of about 60% and cured at an elevated temperature for an extended period.
The finished fabric was washed in a Launder-Ometer, according to AATCC Test Method 61-1994 to evaluate the washing durability. One cycle of Launder-Ometer washing test by this AATCC Test Method is equivalent to about five machine washes in a home laundry practice.
The nylon fabrics were first dyed with two different acid dyes at concentration of 1% on weight fabric (o.w.f) and then treated with the quaternary ammonium salts.
The weight loss of a fabric sample is calculated based on its total weight change after the finishing and washing.

Test in data set [2]: as above
The data set is classed as physicochemical. The settings on record: 6% quaternary salt solution, pH = 3.7, cured 120° C. 30 minutes.

The mark [3] stands for this setting: nylon fabric dyed with Acid Blue 113 1% owf.
Setting [4] is: nylon fabric dyed with Acid Red 88 1% owf.

Take `CCCCCCCCCCCC[N+](C)(C)C.[Br-]` [DTAB, Dodecyltrimethyl ammonium bromide]: the “Add-on rate after 7 washes (%)” value was −3.51% in data set [1] (Undyed nylon fabric), −3.48% in data set [1] (setting [3]) and −3.39% in data set [1] (setting [4]). Also, the “Total weight loss after the + 7 washes (%)” value (“Total weight loss … (%)” for short) is −1.00% in data set [1] (Undyed nylon fabric), 0.28% in data set [1] (setting [3]) and −0.04% in data set [1] (setting [4]). Besides, the “Add-on rate (%)” value in data set [2] (Undyed nylon fabric) was 2.51%; in data set [2] (setting [3]), 3.86%; in data set [2] (setting [4]), 3.35%.
In the case of `CCCCCCCCCCCC[N+](C)(C)CC(O)C[N+](C)(C)CCCCCCCCCCCC.[Cl-].[Cl-]` [Dimer, 1,3-Bis-(N,N-dimethyldodecylammonium chloride)-2-propanol], the “Add-on rate after 7 washes (%)” value in data set [1] (Undyed nylon fabric) is reported as −3.20%; in data set [1] (setting [3]), −2.54%; in data set [1] (setting [4]) it was −3.08%. Further, the “Total weight loss … (%)” value was −0.47% in data set [1] (Undyed nylon fabric), −0.25% in data set [1] (setting [3]) and −0.09% in data set [1] (setting [4]). Also, the “Add-on rate (%)” value in data set [2] (Undyed nylon fabric) came out at 2.73%; in data set [2] (setting [3]) it was 2.29%; in data set [2] (setting [4]), 2.99%.
For the compound `CCCCCCCCCCCC[N+](C)(C)CC(O)CCl.[Cl-]` (stereo not drawn) [Monomer, N-(3-chloro-2-hydroxypropyl)-N,N-dimethyldodecylammonium chloride], the “Add-on rate after 7 washes (%)” value is listed as −1.81% in data set [1] (Undyed nylon fabric), −2.44% in data set [1] (setting [3]) and −1.87% in data set [1] (setting [4]). Also, the “Total weight loss … (%)” value in data set [1] (Undyed nylon fabric) is recorded as −0.73%; in data set [1] (setting [3]), −0.43%; in data set [1] (setting [4]), −0.09%. The “Add-on rate (%)” value in data set [2] (Undyed nylon fabric) is reported as 1.08%; in data set [2] (setting [3]), 2.01%; in data set [2] (setting [4]), 1.78%.
